In patent US8048825B2, “Haloalkylsulfonanilide derivatives or salt thereof, herbicide comprising the derivatives as active ingredient, and use of the herbicide” (Nihon Nohyaku Co., Ltd., priority 2006, dated 2011):

Key:
Format in all cases: in vivo
[1] = tested on: Lindernia procumbens; experiment: Herbicidal efficacy on paddy field weeds of pre-emergence stage (Pre), Test Example 1; details: 1000 g/ha as active ingredient, examined after 21 days
Method: (§1) 75 cm^2 plastic pots were filled with the soil (clay loam). Seeds of Scirpus juncoides, a paddy weed, were planted, and they were covered with 75 cm^3 of soil mixed with seeds of Lindernia procumbens and then filled with water depth of 5 cm. Next day, predetermined effective dosage (1000 g/ha as an active ingredient) of formulations comprising a compound of the present invention as an active ingredient which were prepared following Formulation Examples 1 to 4 was diluted with water and applied dropwise to the surface of the water. Then, they were brought up in a greenhouse and the herbicidal effect was examined after 21 days from the treatment by comparing with the result of an untreated group according to the following criteria. In the table, “-” means that the test was not performed.
(§2) Criteria for herbicidal efficacy (growth inhibiting degree) and phytotoxicity. • 5 . . . 100% herbicidal effect, phytotoxicity. • 4 . . . 90%-99% herbicidal effect, phytotoxicity. • 3 . . . 70%-89% herbicidal effect, phytotoxicity. • 2 . . . 40%-69% herbicidal effect, phytotoxicity. • 1 . . . 1%-39% herbicidal effect, phytotoxicity. • 0 . . . 0% herbicidal effect, phytotoxicity.

[2] = tested on: Scirpus juncoides; experiment: as above; details: 1000 g/ha as active ingredient, examined after 21 days
Method: as §1, §2

[3] = tested on: Lindernia procumbens; experiment: Herbicidal effect on paddy field weeds of post-emergence stage (Post), Test Example 2; details: one-leaf stage, 1000 g/ha as active ingredient, examined after 21 days
Description: as §2
(§3) 75 cm^2 plastic pots were filled with the soil (clay loam). Seeds of Scirpus juncoides and Echinochloa crus-galli, paddy weeds, were planted, and they were covered with 75 cm^3 of soil mixed with seeds of Lindernia procumbens and then filled with water depth of 5 cm and they were brought up in a greenhouse. When the test plants were at one-leaf stage, predetermined effective dosage (1000 g/ha as an active ingredient) of formulations comprising a compound of the present invention as an active ingredient was applied to the pot water. Then, they were brought up in a greenhouse and the herbicidal efficacy was examined after 21 days from the treatment by comparing with the result of an untreated group according to the criteria of Test Example 1. In the table, “-” means that the test was not performed.

[4] = tested on: Scirpus juncoides; experiment: as above; details: one-leaf stage, 1000 g/ha as active ingredient, examined after 21 days
Description: as §2, §3

| SMILES | Lindernia procumbens pre (herbicidal effect) [1] | Scirpus juncoides pre (herbicidal effect) [2] | Lindernia procumbens post (herbicidal effect) [3] | Scirpus juncoides post (herbicidal effect) [4] |
| --- | --- | --- | --- | --- |
| CCCCOC(=O)N(c1ccccc1CN1CCC(CC)(C(F)(F)F)OC1=O)S(=O)(=O)C(F)(F)F (centres unmarked) [Compound 1-95] | 5 (100% herbicidal effect, phytotoxicity) | 5 (100% herbicidal effect, phytotoxicity) | 5 (100% herbicidal effect, phytotoxicity) | 4 (90%-99% herbicidal effect, phytotoxicity) |
| CCC1(CC(C)C)CCN(Cc2ccccc2N(C(=O)OCC(C)C)S(=O)(=O)C(F)(F)F)C(=O)O1 (centres unmarked) [Compound 1-422] | 5 (100% herbicidal effect, phytotoxicity) | 5 (100% herbicidal effect, phytotoxicity) | 5 (100% herbicidal effect, phytotoxicity) | 4 (90%-99% herbicidal effect, phytotoxicity) |
| CCOC(=O)N(c1ccccc1CN1CCC(CC)(CC(C)C)OC1=O)S(=O)(=O)C(F)(F)F (centres unmarked) [Compound 1-419] | 5 (100% herbicidal effect, phytotoxicity) | 5 (100% herbicidal effect, phytotoxicity) | 5 (100% herbicidal effect, phytotoxicity) | 4 (90%-99% herbicidal effect, phytotoxicity) |
| CN(c1ccccc1CN1CCC(c2ccccc2F)OC1=O)S(=O)(=O)C(F)(F)F (centres unmarked) [Compound 1-257] | 5 (100% herbicidal effect, phytotoxicity) | 4 (90%-99% herbicidal effect, phytotoxicity) | 5 (100% herbicidal effect, phytotoxicity) |  |
| CC1(c2ccccc2)CCN(Cc2ccccc2NS(=O)(=O)C(F)(F)F)C(=O)O1 (centres unmarked) [Compound 1-160] | 4 (90%-99% herbicidal effect, phytotoxicity) | 4 (90%-99% herbicidal effect, phytotoxicity) | 4 (90%-99% herbicidal effect, phytotoxicity) | 4 (90%-99% herbicidal effect, phytotoxicity) |
| O=C1OC(c2ccccc2)(C(F)(F)F)CCN1Cc1ccccc1NS(=O)(=O)C(F)(F)F (centres unmarked) [Compound 1-228] | 5 (100% herbicidal effect, phytotoxicity) | 5 (100% herbicidal effect, phytotoxicity) | 5 (100% herbicidal effect, phytotoxicity) | 4 (90%-99% herbicidal effect, phytotoxicity) |
| CC(C)COC(=O)N(c1ccccc1CN1CCC(C2CC2)(C2CC2)OC1=O)S(=O)(=O)C(F)(F)F [Compound 1-154] | 4 (90%-99% herbicidal effect, phytotoxicity) |  |  |  |
| CN(c1ccccc1CN1CCC(c2ccccc2C(F)(F)F)OC1=O)S(=O)(=O)C(F)(F)F (centres unmarked) [Compound 1-301] | 5 (100% herbicidal effect, phytotoxicity) |  | 5 (100% herbicidal effect, phytotoxicity) |  |
| CC(C)COC(=O)N(c1ccccc1CN1CCC(C)(c2ccccc2)OC1=O)S(=O)(=O)C(F)(F)F (centres unmarked) [Compound 1-165] | 4 (90%-99% herbicidal effect, phytotoxicity) | 4 (90%-99% herbicidal effect, phytotoxicity) |  | 4 (90%-99% herbicidal effect, phytotoxicity) |
| CCOCN(c1ccccc1CN1CC(C)(C)C(c2ccccc2)OC1=O)S(=O)(=O)C(F)(F)F (centres unmarked) [Compound 1-270] | 5 (100% herbicidal effect, phytotoxicity) |  | 5 (100% herbicidal effect, phytotoxicity) | 4 (90%-99% herbicidal effect, phytotoxicity) |
| O=C1OC(c2c(F)cccc2F)CCN1Cc1ccccc1NS(=O)(=O)C(F)(F)F (centres unmarked) [Compound 1-349] | 5 (100% herbicidal effect, phytotoxicity) | 5 (100% herbicidal effect, phytotoxicity) | 5 (100% herbicidal effect, phytotoxicity) |  |
| CCC1(c2ccccc2)CCN(Cc2ccccc2N(C)S(=O)(=O)C(F)(F)F)C(=O)O1 (centres unmarked) [Compound 1-323] | 5 (100% herbicidal effect, phytotoxicity) |  | 5 (100% herbicidal effect, phytotoxicity) |  |
| CCOCN(c1ccccc1CN1CCC(c2ccccc2Cl)OC1=O)S(=O)(=O)C(F)(F)F (centres unmarked) [Compound 1-314] | 5 (100% herbicidal effect, phytotoxicity) | 4 (90%-99% herbicidal effect, phytotoxicity) | 5 (100% herbicidal effect, phytotoxicity) |  |
| CCOCN(c1ccccc1CN1CCC(c2c(C)cccc2C)OC1=O)S(=O)(=O)C(F)(F)F (centres unmarked) [Compound 1-369] | 5 (100% herbicidal effect, phytotoxicity) |  | 5 (100% herbicidal effect, phytotoxicity) | 4 (90%-99% herbicidal effect, phytotoxicity) |
| Cc1ccccc1C1CCN(Cc2ccccc2N(C)S(=O)(=O)C(F)(F)F)C(=O)O1 (centres unmarked) [Compound 1-290] | 5 (100% herbicidal effect, phytotoxicity) |  | 5 (100% herbicidal effect, phytotoxicity) | 4 (90%-99% herbicidal effect, phytotoxicity) |
| O=C1OCCCN1Cc1ccccc1NS(=O)(=O)C(F)(F)F [Compound No. 1-1, 3-[2-(trifluoromethanesulfonylamino)benzyl]-[1,3]-oxazinan-2-one] | 4 (90%-99% herbicidal effect, phytotoxicity) | 4 (90%-99% herbicidal effect, phytotoxicity) |  | 4 (90%-99% herbicidal effect, phytotoxicity) |
| CC(C)COC(=O)N(c1ccccc1CN1CCC(c2ccccc2)OC1=O)S(=O)(=O)C(F)(F)F (centres unmarked) [Compound 1-244] | 5 (100% herbicidal effect, phytotoxicity) |  | 5 (100% herbicidal effect, phytotoxicity) |  |
| CC1CCN(Cc2ccccc2NS(=O)(=O)C(F)(F)F)C(=O)OC1 (centres unmarked) [Compound No. 2-23, 6-methyl-3-[2-(trifluoromethanesulfonylamino)benzyl]-[1,3]-oxazepan-2-one] | 4 (90%-99% herbicidal effect, phytotoxicity) | 4 (90%-99% herbicidal effect, phytotoxicity) |  | 4 (90%-99% herbicidal effect, phytotoxicity) |
| CN(c1ccccc1CN1CCC(C)(C)OC1=O)S(=O)(=O)C(F)(F)F [Compound 1-54] |  | 4 (90%-99% herbicidal effect, phytotoxicity) |  | 4 (90%-99% herbicidal effect, phytotoxicity) |
| CN(c1ccccc1CN1CCC(c2c(Cl)cccc2Cl)OC1=O)S(=O)(=O)C(F)(F)F (centres unmarked) [Compound 1-279] | 5 (100% herbicidal effect, phytotoxicity) |  | 5 (100% herbicidal effect, phytotoxicity) | 4 (90%-99% herbicidal effect, phytotoxicity) |
| CC(C)COC(=O)N(c1ccccc1CN1CCC(c2ccccc2F)OC1=O)S(=O)(=O)C(F)(F)F (centres unmarked) [Compound 1-255] | 5 (100% herbicidal effect, phytotoxicity) |  | 5 (100% herbicidal effect, phytotoxicity) |  |
| CN(c1ccccc1CN1CCC(c2ccccc2Cl)OC1=O)S(=O)(=O)C(F)(F)F (centres unmarked) [Compound 1-312] | 5 (100% herbicidal effect, phytotoxicity) |  | 5 (100% herbicidal effect, phytotoxicity) |  |
| CN(c1ccccc1CN1CCC(c2ccccc2)OC1=O)S(=O)(=O)C(F)(F)F (centres unmarked) [Compound 1-246] | 5 (100% herbicidal effect, phytotoxicity) |  |  |  |
| CN(c1ccccc1CN1CCC2(CCCC2)OC1=O)S(=O)(=O)C(F)(F)F [Compound 1-145] |  | 4 (90%-99% herbicidal effect, phytotoxicity) |  | 4 (90%-99% herbicidal effect, phytotoxicity) |
| CCOCN(c1ccccc1CN1CCC(c2c(Cl)cccc2Cl)OC1=O)S(=O)(=O)C(F)(F)F (centres unmarked) [Compound 1-281] | 5 (100% herbicidal effect, phytotoxicity) |  | 5 (100% herbicidal effect, phytotoxicity) | 4 (90%-99% herbicidal effect, phytotoxicity) |
| CN(c1ccccc1CN1CCC(c2ccccc2)(c2ccccc2)OC1=O)S(=O)(=O)C(F)(F)F [Compound 1-224] | 4 (90%-99% herbicidal effect, phytotoxicity) |  |  |  |
| CN(c1ccccc1CN1CCC(C)(c2ccccc2)OC1=O)S(=O)(=O)C(F)(F)F (centres unmarked) [Compound 1-167] |  | 4 (90%-99% herbicidal effect, phytotoxicity) |  |  |
